One may read the AC50 as the concentration giving half of the maximal activity seen.

For 58 compounds, AC50 and activity change, negative = inhibition results are on record in PubChem BioAssay AID540354 (Broad Institute, 2011).

Structures are written as SMILES. Activity calls are given as the source filed them.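 How the source made its calls: active means compounds lowering labeled HDL uptake signal, with AC50 at most ten times the top tested dose; inconclusive means flat partial inhibition between 30 and 70% or unreliable fit; inactive means the rest.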

The first experiment relates to ldlA[mSR-BI] CHO cells, DiI-HDL uptake fluorescence, 3 h. Description: blockers of fluorescent HDL lipid uptake via SR-BI – ldlA[mSR-BI] CHO cells, dry powder samples, dose response (AID 540354).
Settings: not given
On to `Cc1cc(C)c2c(c1)NC(c1cc3c(cc1Br)OCO3)C1CC=CC21` (stereo not drawn), for which the AC50 is 505 nM.
With `C[C@H]1CN([C@@H](C)CO)C(=O)c2cccc(NC(=O)Nc3ccc(F)cc3)c2O[C@@H]1CN(C)Cc1ccc(Cl)c(Cl)c1`, the AC50 is 1390 nM.
As for `CCOc1ccccc1/C=C/c1onc(C)c1S(=O)(=O)N1CCC(C(=O)NC(C)(C)C)CC1`, the AC50 is 77 nM.
The same measure, in the same setting: as for `O=C(Nc1cc(Cl)ccc1Cl)c1cc(Br)ccc1NS(=O)(=O)c1ccc(Cl)c([N+](=O)[O-])c1`, the figure is 426 nM; as for `CC(OC(=O)c1cccc(NS(C)(=O)=O)c1)C(=O)Nc1ccc(N2CCOCC2)cc1` (stereo not drawn), 335 nM; as for `COc1ccc(-c2nnn(CC(=O)N(C3CCCCC3)C(C)C(=O)NC3CCCC3)n2)cc1OC` (stereo not drawn), 28 nM.
The same measure, in the same setting: to `O=C(Nc1cccc(NC(=O)c2cc([N+](=O)[O-])ccc2Cl)n1)c1cc([N+](=O)[O-])ccc1Cl` belongs 1960 nM; to `C[C@H]1CN([C@@H](C)CO)C(=O)c2cccc(NC(=O)Nc3ccccc3)c2O[C@@H]1CN(C)Cc1ccccc1`, 13400 nM; to `COc1ccc(OC)c(CCNC(=O)c2ccc3c(c2)N(Cc2ccc(F)cc2)CCS3)c1`, 559 nM.
As to `CC(C)(C)NC(=O)N1CCN(c2ncccc2C(F)(F)F)CC1`, the half-maximal activity concentration (AC50) was 292 nM.
Still for that read-out and setting: as for `O=C(Nc1ccc(-c2nc3cc(NC(=O)c4ccc(NC(=O)c5cccc6ccccc56)cc4)ccc3[nH]2)cc1)c1ccc(NC(=O)c2cccc3ccccc23)cc1`, the figure is below 15 nM; as for `C[C@H]1CN([C@@H](C)CO)C(=O)c2cccc(NS(C)(=O)=O)c2O[C@@H]1CN(C)Cc1ccc(Cl)c(Cl)c1`, 19400 nM.
Turning to `CCC(=O)N1CCc2cc(-c3csc(NC(=O)c4ccco4)n3)ccc21`, the AC50 is 17 nM.
With `C[C@H](CO)N1C[C@H](C)[C@H](CN(C)S(=O)(=O)c2ccc(F)cc2)Oc2ccc(NC(=O)CCC(F)(F)F)cc2C1=O`, the AC50 is > 35000 nM (inactive).
For the compound `CCOC(=O)N1CCC(NC(=O)c2ccc3c(c2)N(Cc2ccc(F)cc2)CCS3)CC1`, the half-maximal activity concentration (AC50) is 32 nM.
Same read-out and setting: as for `Cc1ccc2oc(-c3cccc(NC(=O)c4cc(-n5cnnc5)ccc4Cl)c3)nc2c1`, the figure is 593 nM; as for `C[C@H]1CN([C@@H](C)CO)C(=O)c2cccc(NC(=O)Nc3ccccc3)c2O[C@@H]1CN(C)C`, 17300 nM.
On the same count and under the same terms, to `Cc1cc(C(=O)C(C)OC(=O)C2=NNC(=O)CC2)c(C)n1-c1ccc(OC(F)F)cc1` (stereo not drawn) belongs 1300 nM.
For `O=C(Nc1ccccc1Cl)c1ccccc1NS(=O)(=O)c1ccccc1`, the AC50 is 33300 nM.
Same read-out and setting: as for `N#Cc1sc2nc(C3CC3)cc(-c3ccc(Cl)cc3)c2c1N`, the figure is 1640 nM; as for `O=C(Nc1ccc(-c2nc3ccc(NC(=O)c4ccccc4[N+](=O)[O-])cc3[nH]2)cc1)c1ccccc1[N+](=O)[O-]`, 251 nM; as for `O=C(Nc1ccc(Cl)cc1C(=O)c1ccc(Cl)cc1)c1cc(Br)ccc1NS(=O)(=O)c1ccc(Cl)cc1`, 494 nM.
The same measure, in the same setting: as for `Cc1cc(C)n(CC(=O)NC2CCCc3c2cnn3-c2ccc(C)c(C)c2)n1` (stereo not drawn), the figure is 376 nM.
On the same count and under the same terms, as for `COC(=O)c1cn(C(=O)c2cccc3ccccc23)c2ccccc12`, the figure is 3610 nM; as for `C[C@H](CO)N1C[C@H](C)[C@@H](CN(C)S(=O)(=O)c2ccc(F)cc2)Oc2ccc(NC(=O)Cc3cn(C)c4ccccc34)cc2C1=O`, 38500 nM.
As for `CCOc1ccc(NC(=O)CN2CCN(CC(=O)Nc3cc(OC)cc(OC)c3)CC2)cc1`, the concentration at half-maximal activity (AC50) is below 30 nM.
Still for that read-out and setting: as for `O=C(Nc1ccc(-c2nc3ccc(NC(=O)c4ccccc4)cc3[nH]2)cc1)c1ccccc1`, the figure is 526 nM.
Take `C[C@H]1CN([C@@H](C)CO)C(=O)c2cccc(NC(=O)Nc3ccccc3)c2O[C@@H]1CN(C)Cc1ccc(Cl)c(Cl)c1`: the AC50 is 1500 nM.
On to `CCOC(=O)Nc1cccc(NC(=O)c2cc(OC)cc(OC)c2)c1`, for which the AC50 was 546 nM.
As for `COc1ccc([C@H]2CC(=O)C=C(c3cccc4c3sc3ccccc34)C2)cc1OC`, the AC50 is 208 nM.
On the same count and under the same terms, to `CC(C)NC(=O)Nc1cccc2c1O[C@H](CN(C)Cc1ccc(Cl)c(Cl)c1)[C@@H](C)CN([C@@H](C)CO)C2=O` belongs 1050 nM.
Regarding `CCn1c(COc2c(C)cccc2C)nnc1SCC(=O)N1CCN(c2ccccc2)CC1`, the AC50 is 2790 nM.
On the same count and under the same terms, to `C[C@H]1CN([C@@H](C)CO)C(=O)c2cccc(NC(=O)Nc3ccccc3)c2O[C@@H]1CN(C)Cc1ccc(C(F)(F)F)cc1` belongs 28000 nM; to `O=C(Nc1ccccc1)c1ccccc1NS(=O)(=O)c1ccc(Cl)cc1`, 47800 nM; to `C[C@@H]1CN([C@H](C)CO)C(=O)c2cc(NC(=O)Cc3cn(C)c4ccccc34)ccc2O[C@@H]1CN(C)S(=O)(=O)c1ccc(F)cc1`, 25700 nM.
On the same count and under the same terms, as for `COc1cccc(-c2csc(N3CCN(C(=S)Nc4cccc(Cl)c4)CC3)n2)c1`, the figure is 1890 nM.
The same measure, in the same setting: to `O=C(Nc1ccc(-c2nc3cc(NC(=O)c4ccccc4Cl)ccc3o2)cc1)c1ccccc1Cl` belongs 16 nM.
Take `O=C(Nc1cc(Cl)ccc1Cl)c1cc(Cl)ccc1NS(=O)(=O)c1ccc(Cl)c([N+](=O)[O-])c1`: the AC50 is 444 nM.
Regarding `CCc1sc(N2C(=O)C3C4CCC(C4=C(C)C)C3C2=O)nc1-c1ccccc1` (stereo not drawn), the half-maximal activity concentration (AC50) is 754 nM.
Regarding `O=C(Nc1cc(C(F)(F)F)ccc1Cl)c1ccccc1NS(=O)(=O)c1ccc(Cl)cc1`, the AC50 is 1380 nM.
`Cc1ccccc1NC(=O)NCC1CCN(c2ccc(S(=O)(=O)N3CCOCC3)cc2)CC1`: the AC50 is 262 nM.
In the case of `C[C@@H]1CN([C@H](C)CO)C(=O)c2cc(NC(=O)Cc3cn(C)c4ccccc34)ccc2O[C@H]1CN(C)S(=O)(=O)c1ccccc1`, the AC50 was 1290 nM.
Same read-out and setting: as for `Cc1ccc(-c2nnc(N3CCC(C)CC3)c3ccccc23)cc1C`, the figure is 197 nM; as for `O=C(Nc1ccc(-c2nc3ccc(NC(=O)c4ccc(Cl)cc4)cc3[nH]2)cc1)c1ccc(Cl)cc1`, below 15 nM; as for `Nc1ccc(C(=O)Nc2ccc(-c3nc4ccc(NC(=O)c5ccc(N)cc5)cc4[nH]3)cc2)cc1`, 813 nM.
On the same count and under the same terms, as for `CNC[C@@H]1Oc2ccc(NC(=O)Cc3cn(C)c4ccccc34)cc2C(=O)N([C@H](C)CO)C[C@H]1C`, the figure is 48000 nM.
For the compound `C[C@@H]1CN([C@H](C)CO)C(=O)c2cc(NC(=O)Cc3cn(C)c4ccccc34)ccc2O[C@H]1CN(C)C(=O)Nc1ccc(F)cc1`, the concentration at half-maximal activity (AC50) is 3290 nM.
As for `C[C@H]1CN([C@@H](C)CO)C(=O)c2cccc(N(C)C)c2O[C@@H]1CN(C)Cc1ccc(Cl)c(Cl)c1`, the AC50 was 42400 nM.
In the case of `C[C@@H]1CN([C@H](C)CO)C(=O)c2cc(NC(=O)Cc3cn(C)c4ccccc34)ccc2O[C@H]1CN(C)S(=O)(=O)c1ccc(Cl)cc1`, the AC50 is 454 nM.
Same read-out and setting: to `C[C@@H]1CN([C@@H](C)CO)C(=O)c2cc(NC(=O)Cc3cn(C)c4ccccc34)ccc2O[C@H]1CN(C)S(=O)(=O)c1ccc(F)cc1` belongs 2190 nM; to `C[C@@H]1CN([C@H](C)CO)C(=O)c2cc(NC(=O)Cc3cn(C)c4ccccc34)ccc2O[C@H]1CN(C)S(=O)(=O)c1ccc(F)cc1`, 1090 nM; to `CCc1cc2cc3c(cc2nc1SCC(=O)OC(C)C)OCO3`, 79 nM.
Same read-out and setting: to `O=C(Nc1ccc(-c2nc3cc(NC(=O)c4ccccc4[N+](=O)[O-])ccc3o2)cc1)c1ccccc1[N+](=O)[O-]` belongs below 15 nM; to `Cc1cc(SC(C)C(=O)Nc2ncc(Cl)cc2Cl)nc2ccccc12` (stereo not drawn), 491 nM.
The same measure, in the same setting: as for `C[C@@H]1CN([C@H](C)CO)C(=O)c2cc(NC(=O)Cc3cn(C)c4ccccc34)ccc2O[C@H]1CN(C)S(C)(=O)=O`, the figure is 18200 nM; as for `CC(C)OCCCNC(=O)c1ccc(C2SCC(=O)N2Cc2ccco2)cc1` (stereo not drawn), 1380 nM.

Test system in the next experiment: not listed separately
The description is as above. Conditions: ldlA[mSR-BI] CHO cells, DiI-HDL uptake fluorescence, 3 h; at 35 µM (top of the series).
For `C[C@H](CO)N1C[C@H](C)[C@H](CN(C)S(=O)(=O)c2ccc(F)cc2)Oc2ccc(NS(C)(=O)=O)cc2C1=O`, the activity change, negative = inhibition is -1.08% (inactive).
Same read-out and setting: as for `C[C@H](CO)N1C[C@H](C)[C@H](CN(C)S(=O)(=O)c2ccc(F)cc2)Oc2ccc(NC(=O)Cc3ccccc3)cc2C1=O`, the figure is -3.31% (inactive).
